Experiments:
[1] = biological target: recombinant RORγ Ligand Binding Domain (LBD) protein (Homo sapiens (Human), UniProt P51449); assay: Radio-Ligand RORγ Binding Assay (Assay 1); settings: competition with 25-hydroxy [26,27-3H]-cholesterol, SPA; Table 9; read-out: RORγ Binding Ki Range*
Procedure: Radio-Ligand RORγ Binding Assay (Assay 1)
Compounds of the present invention were tested for ability to bind to RORγ in a cell-free competition assay with commercially available radio-ligand (RL), 25-hydroxy [26,27-^3H]— cholesterol (PerkinElmer, Cat. # NET674250UC), for a ligand binding site on a recombinant RORγ Ligand Binding Domain (LBD) protein expressed as a 6×His-Glutathione-S-Transferase (GST) fusion (“6×His” disclosed as SEQ ID NO: 2). The assay was performed in 96-well SPA plates (PerkinElmer, Cat. #1450-401) in 50 mM HEPES buffer, pH 7.4, containing 150 mM NaCl, 5 mM MgCl2, 10% (v/v) glycerol, 2 mM CHAPS, 0.5 mM β-octylglucopyranoside and 5 mM DTT. Tested compounds were dissolved in DMSO, and semi-log (3.162×) serial dilutions of the compounds were prepared in the same solvent. Two μL of the DMSO solutions were mixed with 28 μL of 8.6 nM 25-hydroxy [26,27-^3H]— cholesterol and 50 μL of 24 nM RORγ LBD. The plate was shaken at 700 rpm for 20 min and incubated for 10 min at rt, after which 40 μL of poly-Lys YSi SPA beads (PerkinElmer, Cat. # RPNQ0010) were added to achieve 50 μg of the beads per well. The plate was incubated on an orbital shaker for 20 min and then for 10 min without agitation at rt. SPA signal for tritium beta radiation was registered on PerkinElmer Microbeta plate reader. Percent inhibition values were calculated based on the high signal obtained with DMSO control and the low signal observed with 10 μM standard RORγ inverse agonist T0901317 (SigmaAldrich, Cat. # T2320). The percent inhibition vs. concentration data were fit into a four-parameter model, and […] values were calculated from the fit as the concentrations corresponding to the inflection points on the dose-response curves. Inhibitory constants (Ki) were calculated using the following equation, where [RL] is the concentration in the assay and KD is a dissociation constant of 25-hydroxy [26,27-^3H]-cholesterol: […]

[2] = biological target: full-length RORγt in Jurkat cells (Homo sapiens (Human), UniProt P51449); assay: RORγt 5xRORE Assay in Jurkat Cells (Assay 2); assay type: cell-based; settings: Nanoluc luciferase reporter, 16-18 hrs, Table 9, read-out: RORγt5X IC50 Range*
Sequence of full-length RORγt in Jurkat cells (P51449 other isoform, or with tags, fused parts or gaps): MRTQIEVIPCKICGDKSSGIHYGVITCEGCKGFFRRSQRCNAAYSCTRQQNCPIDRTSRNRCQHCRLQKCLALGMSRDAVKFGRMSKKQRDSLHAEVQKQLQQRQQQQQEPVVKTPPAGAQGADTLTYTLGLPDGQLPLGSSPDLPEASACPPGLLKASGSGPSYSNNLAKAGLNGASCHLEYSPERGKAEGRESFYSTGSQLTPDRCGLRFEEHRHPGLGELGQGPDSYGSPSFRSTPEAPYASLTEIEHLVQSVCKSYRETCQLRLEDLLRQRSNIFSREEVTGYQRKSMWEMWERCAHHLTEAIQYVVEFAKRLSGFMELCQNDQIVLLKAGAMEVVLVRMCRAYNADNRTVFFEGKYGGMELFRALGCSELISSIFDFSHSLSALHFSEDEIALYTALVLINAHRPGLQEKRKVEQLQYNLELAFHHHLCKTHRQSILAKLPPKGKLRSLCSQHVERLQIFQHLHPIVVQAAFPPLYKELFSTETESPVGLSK
Procedure: [formula] RORγt 5xRORE Assay in Jurkat Cells (Assay 2)
Compounds of the present invention were tested for RORγ inverse agonist activity in a cell-based, transcriptional activity assay. Secreted Nanoluc® luciferase was used as a reporter for transcriptional activity of the full-length RORγt in Jurkat cells (ATCC, Cat. # TIB-152). A reporter plasmid was constructed by inserting 5 repeats of the ROR Response Element (RORE) […] (SEQ ID NO:1) into a commercially available promoterless plasmid pNL1.3[secNluc] (Promega, Cat. # N1021) using KpnI and HindIII restriction sites. The expression plasmid for RORγt was purchased (Geneocopoeia, Cat. # EX-T6988-M02). Jurkat cells (30 million cells) were transfected with 11 μg of EX-T6988-MO2 and 26 μg of the reporter plasmid in OptiMEM® media using Lipofectamine® LTX and Plus™ reagents (Life Technologies, Cat. #15338-100). After 5-6 h of incubation at 37° C./5% CO2, the cells were collected, resuspended in phenol-red free RPMI media containing 10% (v/v) delipidated FBS (Hyclone, Cat. # SH30855.03) and dispensed into 96-well clear bottom tissue culture plates (CoStar, Cat. #3603), at 80,000 cells per well. Tested compounds were added to the cells in the same media (final concentration of DMSO was 0.1% (v/v)), and the plates were incubated at 37° C./5% CO2 for 16-18 hrs. Luciferase activity in the conditioned supernatants was determined with NanoGlo® assay reagents (Promega, Cat. # N1130).

Sequence of recombinant RORγ Ligand Binding Domain (LBD) protein (P51449 269-508): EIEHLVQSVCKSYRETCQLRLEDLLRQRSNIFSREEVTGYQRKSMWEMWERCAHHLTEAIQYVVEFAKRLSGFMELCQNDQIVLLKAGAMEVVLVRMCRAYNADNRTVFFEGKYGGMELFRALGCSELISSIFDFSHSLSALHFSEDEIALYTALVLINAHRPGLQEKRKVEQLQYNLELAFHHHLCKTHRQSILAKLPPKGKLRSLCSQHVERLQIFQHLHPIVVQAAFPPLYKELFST

SMILES | Ki [1] | IC50 [2]
CCS(=O)(=O)c1ccc(CC(=O)Nc2nc3c(s2)CN(Cc2ccc(-c4ccc(=O)n(C)c4)cc2)[C@H]3C(C)C)nc1 | < 0.1 µM | < 0.1 µM
CCS(=O)(=O)c1cnc(CC(=O)Nc2nc3c(s2)CN(Cc2ccc(-c4nnn(C)n4)cc2)[C@H]3C(C)C)nc1 | < 0.1 µM | 0.1 to 1 µM
Cc1cc(CN2Cc3sc(NC(=O)Cc4ccc(C#N)cc4)nc3[C@@H]2C(C)C)ccc1C#N | < 0.1 µM | 0.1 to 1 µM
CCS(=O)(=O)c1ccc(CC(=O)Nc2nc3c(s2)CN(C[C@H]2CC[C@@H](C(F)(F)F)CC2)C3C(C)C)cc1 (some centres unmarked) | < 0.1 µM | > 1 µM
CCS(=O)(=O)c1ccc(CC(=O)Nc2nc3c(s2)CN(Cc2ccc(C#N)cc2C(F)(F)F)[C@H]3C(C)C)cc1 | < 0.1 µM | > 1 µM
CCS(=O)(=O)c1ccc(CC(=O)Nc2nc3c(s2)CN(Cc2c(F)cc(C#N)cc2F)[C@H]3C(C)C)cc1 | < 0.1 µM | 0.1 to 1 µM
CCS(=O)(=O)c1ccc(CC(=O)Nc2nc3c(s2)CN(Cc2ccc(C)nn2)[C@H]3C(C)C)cc1 | < 0.1 µM | > 1 µM
CCS(=O)(=O)c1ccc(CC(=O)Nc2nc3c(s2)C(C)N(Cc2ccc(Cl)cc2)[C@H]3C(C)C)cc1 (some centres unmarked) | < 0.1 µM | < 0.1 µM
CCS(=O)(=O)c1ccc(CC(=O)Nc2nc3c(s2)C(C)N(Cc2ccc(C#N)cc2)[C@H]3C(C)C)cc1 (some centres unmarked) | < 0.1 µM | 0.1 to 1 µM
CCOC(=O)c1cnc(N2Cc3sc(NC(=O)Cc4ccc(S(=O)(=O)CC)cc4)nc3[C@]2(C)C(C)C)nc1C(F)(F)F | < 0.1 µM | > 1 µM
CCS(=O)(=O)c1ccc(CC(=O)Nc2nc3c(s2)CN(Cc2ccc(Cl)cc2)[C@@]3(C)C(C)C)cc1 | < 0.1 µM | < 0.1 µM
CCS(=O)(=O)c1cnc(CC(=O)Nc2nc3c(s2)CN(Cc2ccc(C#N)cc2)[C@H]3C(C)C)nc1 | < 0.1 µM | 0.1 to 1 µM
CC[C@@]1(C)c2nc(NC(=O)Cc3ccc(S(=O)(=O)CC)cc3)sc2CN1Cc1ccc(C#N)cc1 | < 0.1 µM | 0.1 to 1 µM
CC[C@@]1(C)c2nc(NC(=O)Cc3ccc(S(=O)(=O)CC)cc3)sc2CN1Cc1ccc(Cl)cc1 | < 0.1 µM | < 0.1 µM
CCS(=O)(=O)c1ccc(CC(=O)Nc2nc3c(s2)CN(Cc2ccc(OC(F)(F)F)c(Cl)c2)[C@H]3C(C)C)nc1 | < 0.1 µM | < 0.1 µM
CCS(=O)(=O)c1ccc(CC(=O)Nc2nc3c(s2)CN(c2ncc(C(C)=O)c(C(F)(F)F)n2)[C@H]3C(C)C)cc1 | < 0.1 µM | > 1 µM
CC(C)[C@H]1c2nc(NC(=O)Cc3ccc(C#N)cc3)sc2CN1Cc1ccc(C#N)c(Cl)c1 | < 0.1 µM | 0.1 to 1 µM
CCS(=O)(=O)c1cnc(CC(=O)Nc2nc3c(s2)CN(Cc2ccc(C(F)(F)F)cc2)[C@H]3C(C)C)nc1 | < 0.1 µM | 0.1 to 1 µM
CC(C)[C@H]1c2nc(NC(=O)Cc3ccc(C(N)=O)cc3)sc2CN1Cc1ccc(Cl)cc1 | < 0.1 µM | 0.1 to 1 µM
Cc1nc(C(F)(F)F)ccc1CN1Cc2sc(NC(=O)Cc3ccc(S(C)(=O)=O)cc3F)nc2[C@@H]1C(C)C | < 0.1 µM | < 0.1 µM
CCS(=O)(=O)c1ccc(CC(=O)Nc2nc3c(s2)CN(Cc2ccc(N)nc2)[C@H]3C(C)C)cc1 | < 0.1 µM | > 1 µM
CCS(=O)(=O)c1ccc(CC(=O)Nc2nc3c(s2)CN(Cc2cnc(C)nc2)[C@H]3C(C)C)cc1 | < 0.1 µM | 0.1 to 1 µM
CC[C@H]1c2nc(NC(=O)Cc3ccc(CO)cc3)sc2CN1Cc1ccc(Cl)cc1 | < 0.1 µM | 0.1 to 1 µM
CC(C)[C@H]1c2nc(NC(=O)Cc3ccc(C(=O)O)cc3)sc2CN1Cc1ccc(Cl)cc1 | < 0.1 µM | 0.1 to 1 µM
CC(C)[C@H]1c2nc(NC(=O)Cc3ccc(S(C)(=O)=O)cc3)sc2CN1Cc1ccc(-c2nnnn2C)cc1 | < 0.1 µM | < 0.1 µM

SMILES | Ki [1] | IC50 [2]
Cc1nnc(-c2ccc(CN3Cc4sc(NC(=O)Cc5ccc(S(C)(=O)=O)cc5)nc4[C@@H]3C(C)C)cc2)o1 | < 0.1 µM | < 0.1 µM
CCS(=O)(=O)c1ccc(CNC(=O)c2nc3c(s2)CN(CC2CN(CC(F)(F)F)CCO2)[C@H]3C(C)C)cc1 (some centres unmarked) | < 0.1 µM | > 1 µM
CCS(=O)(=O)c1ccc(CNC(=O)c2nc3c(s2)CN(CC2CN(C(=O)OC(C)(C)C)CCO2)[C@H]3C(C)C)cc1 (some centres unmarked) | < 0.1 µM | < 0.1 µM
CCS(=O)(=O)c1cnc(CC(=O)Nc2nc3c(s2)CN(Cc2ccc(Cl)cc2)[C@H]3C(C)C)nc1 | < 0.1 µM | 0.1 to 1 µM
CC(C)[C@H]1c2nc(NC(=O)Cc3ccc(S(C)(=O)=O)cc3)sc2CN1[C@H](C)c1ccc(C#N)cc1Cl | < 0.1 µM | 0.1 to 1 µM
CCS(=O)(=O)c1ccc(CC(=O)Nc2nc3c(s2)CN(Cc2ccncc2)[C@H]3C(C)C)cc1 | < 0.1 µM | > 1 µM
CCS(=O)(=O)c1ccc(CC(=O)Nc2nc3c(s2)CN(Cc2ccc(CO)cc2)[C@H]3C(C)C)cc1 | < 0.1 µM | 0.1 to 1 µM
CC[C@H]1c2nc(NC(=O)Cc3ccc(S(C)(=O)=O)cc3)sc2CN1Cc1ccc2nn[nH]c2c1 | < 0.1 µM | 0.1 to 1 µM
CCS(=O)(=O)c1ccc(CC(=O)Nc2nc3c(s2)CN(c2ncc(C(F)(F)F)cn2)[C@H]3C(C)C)cc1 | < 0.1 µM | > 1 µM
CCOC(=O)c1cnc(N2Cc3sc(NC(=O)Cc4ccc(S(=O)(=O)CC)cc4)nc3[C@@H]2C(C)C)nc1C(F)(F)F | < 0.1 µM | > 1 µM
CCS(=O)(=O)c1ccc(CC(=O)Nc2nc3c(s2)CN(c2nc(C)cc(C(F)(F)F)n2)[C@H]3C(C)C)cc1 | < 0.1 µM | > 1 µM
CC(C)[C@H]1c2nc(NC(=O)Cc3ccc(C#N)cc3)sc2CN1Cc1ccc(C#N)cc1 | < 0.1 µM | 0.1 to 1 µM
CCS(=O)(=O)c1ccc(CC(=O)Nc2nc3c(s2)CN(c2nccc(C(F)(F)F)n2)[C@H]3C(C)C)cc1 | < 0.1 µM | > 1 µM
CCS(=O)(=O)c1ccc(CC(=O)Nc2nc3c(s2)CN(Cc2ccc(C(F)(F)F)cn2)[C@H]3C(C)C)nc1 | < 0.1 µM | 0.1 to 1 µM
CCS(=O)(=O)c1ccc(CC(=O)Nc2nc3c(s2)CN(Cc2ccc4c(c2)CCO4)[C@H]3C(C)C)cc1 | < 0.1 µM | > 1 µM
CCS(=O)(=O)c1ccc(CC(=O)Sc2nc3c(s2)CN(Cc2ccc(Cl)cc2)C3(C)C)cc1 | < 0.1 µM | 0.1 to 1 µM
CCS(=O)(=O)c1ccc(CC(=O)Nc2nc3c(s2)CN(c2nccc(C(F)(F)F)n2)C3(C)C)cc1 | < 0.1 µM | > 1 µM
CC(C)[C@H]1c2nc(C(=O)NCc3ccc(S(C)(=O)=O)cc3)sc2CN1Cc1ccc(F)cc1 | < 0.1 µM | > 1 µM
CC(C)[C@H]1c2nc(C(=O)NCc3ccc(S(C)(=O)=O)cc3)sc2CN1Cc1ccc(C#N)c(F)c1 | < 0.1 µM | 0.1 to 1 µM
CC(C)[C@H]1c2nc(C(=O)NCc3ccc(S(C)(=O)=O)cc3)sc2CN1Cc1ccc(C(F)(F)F)cc1 | < 0.1 µM | < 0.1 µM
CC(C)[C@H]1c2nc(C(=O)NCc3ccc(S(C)(=O)=O)cc3)sc2CN1Cc1ccc(C#N)cc1F | < 0.1 µM | 0.1 to 1 µM
CC1(C)c2nc(NC(=O)Cc3ccc(S(C)(=O)=O)cc3)sc2CN1c1nccc(C(F)(F)F)n1 | 0.1 to 1 µM | > 1 µM
CC(C)[C@H]1c2nc(NC(=O)Cc3ccc(S(C)(=O)=O)cc3)sc2CN1Cc1cnc(C(F)(F)F)nc1 | < 0.1 µM | < 0.1 µM
CC(C)[C@H]1c2nc(NC(=O)Cc3ccc(S(C)(=O)=O)cc3)sc2CN1[C@H](C)c1cnc(Cl)cc1F | < 0.1 µM | 0.1 to 1 µM
